# Source: patent publication US20220387342A1, “TRANSDERMAL PATCH” (University of Sunderland, priority 2019, published 2022)
# Where a name gives a salt, the structure may show the parent alone.
# Tests used:
# [1] = cited from earlier work
# [2] = tertiary aliphatic nitrogen; cited from earlier work
# [3] = tested on: bacteria, yeasts and moulds; assay: Small scale study of microbial growth in naltrexone solutions; settings: for bacterial colony count: after 3 weeks incubation time; for microbial growth: summary b334
# Experimental: This was also evidenced in a small scale study in which the microbial growth in solutions of naltrexone base and naltrexone hydrochloride were compared to a control after being stored for 25 days at 27° C. […] After 48 hours, the bacterial colony count increased to approximately 10^4 CFU/mL in the control sample and to approximately 10^2 CFU/mL in the NTX base sample. […] After 3 weeks incubation time, the bacterial colony count increased to ˜10^5 CFU/mL on the control sample, ˜10^3 CFU/mL for naltrexone base and ˜10^2 CFU/mL for naltrexone hydrochloride. Thus, a longer incubation time was required for growth of microbial colonies in the medicated samples.
# [4] = Stability study: drug content of hydrogel films after storage (HPLC), shelf life estimate; assay type: physicochemical; settings: 0-6 months, ambient and accelerated
# Experimental: The stability of the transdermal patch of the invention may be investigated over the course of 6 months under ambient (20.9±0.6° C./43±2.5% RH) and accelerated (40° C./75% RH) conditions. The patches are tested at time intervals of 0, 1, 2, 3 and 6 months to determine the extent of any physical, chemical and microbial changes that may have occurred.
# Packaged pouches were either placed under ambient conditions (20.9±0.7° C./46.0±3.1% RH) or under accelerated conditions (40° C./75% RH), for 6 months with intermediate testing at 0, 1, 2, 3 and 6 months according to the protocol in Table 7.
# To quantify the amount of drug present at each time point, hydrogel films were removed from each patch (n=3) at 0, 1, 3 and 6 months and dissolved in 5 mL 80% v/v acetonitrile for 16 hours at 30° C. in an Elmasonic S 30 H sonicating water bath (Elma Schmidbauer, Singen, Germany). After 16 hours, the samples were filtered using 0.2 μm Whatman syringeless filters vials with nylon filter media and polypropylene housing (GE Healthcare UK Ltd., Little Chalfont, Buckinghamshire, UK) and injected in triplicate to the HPLC.
# Based on the drug content of the hydrogels only, a shelf life may be predicted by extrapolating the data and calculating how long it would take to reach 90% of the stated dose. […]
# [5] = tested on: bacteria, moulds and yeasts; assay: Stability study: microbiology of patches (Mikrocount duo dipslides); settings: storage up to 6 months, ambient and accelerated
# Experimental: Mikrocount® duo dipslides (Schulke & Mayr GmbH, Norderstedt, Germany) were used to determine total plate count and to detect presence of moulds and yeasts. The surface of each side of the dipslide was placed in contact with the hydrogel surface of the patch for 5 seconds. The dipslides were then placed in their sealed container and incubated for 72 hours at 27±1° C. Once incubated, the dipslides were compared to images within the Mikrocount® brochure to evaluate the colony forming units per cm^2.
# [6] = Differential scanning calorimetry: drug crystallinity and saturation in PEO films; assay type: physicochemical; settings: from plot of enthalpy of fusion against drug concentration, y = 0
# Experimental: Differential scanning calorimetry (DSC) of NTX.base, NTX.HCl, PEO and loaded hydrogel films (irradiated and non-irradiated) may be performed with suitable DSC instruments, such as a DSC Q1000 (TA Instruments, New Castle, Del., USA). The DSC was conditioned for two hours prior to use. Samples (5-10 mg) were accurately weighed using a microbalance (Mettler-Toledo, Greifensee, Switzerland), placed in an aluminium hermetic sample pan and sealed with a hermetic lid (TA Instruments, New Castle, Del., USA). The samples were subjected to standard heat/cool/heat at a rate of 10° C./min, under a constant flow of nitrogen at a rate of 50 mL/min. Suitable settings include the following: • For NTX.base API and NTX.base loaded films, the heat/cool/heat cycle was from −80° C. to 200° C. to −80° C. to 200° C. • NTX.HCl API was heated from −80° C. to 285° C., then cooled to −80° C., and then heated for a second time to 285° C. […]
# DSC analysis was performed, in accordance with the method described in the “Assays” part of the present disclosure. […] From the enthalpy of fusion values for NTX.HCl within the films, the saturation solubility of naltrexone hydrochloride within PEO was calculated by plotting enthalpy against drug concentration. […]
compound,measurement,setting,value
"O=C1CC[C@@]2(O)[C@H]3Cc4ccc(O)c5c4[C@@]2(CCN3CC2CC2)[C@H]1O5 [naltrexone base, 17-(Cyclopropylmethyl)-4,5α-epoxy-3,14-dihydroxymorphinan-6-one]",aqueous solubility,[1],510 µg/mL
same,pKa,[2],8.3
same,yeasts or moulds,[3]; any incubation time point,No yeasts or moulds were detected
same,bacterial colony count,[3]; solutions,~10^3 CFU/mL
same,microbial growth,[3]; solutions,approximately 10^3 CFU/mL
same,degradation of naltrexone under storage (HPLC chromatograms),[4],did not degrade under storage into any other compounds
CC(O)CO (centres unmarked) [propylene glycol],microbial growth on patches,[5],"prevented bacteria, yeast and mould from growing at all throughout the study"
O=C1CC[C@@]2(O)[C@H]3Cc4ccc(O)c5c4[C@@]2(CCN3CC2CC2)[C@H]1O5 [naltrexone hydrochloride],maximum drug loading before crystals are loaded to the film (saturation solubility within PEO),[6],4.40 % w/w
same,bacterial colony count,"[3]; solutions, hydrochloride",approximately 10^2 CFU/mL
same,bacterial growth,"[3]; solutions, after 72 hours",Negligible bacterial growth
same,microbial growth,"[3]; solutions, hydrochloride",approximately 10^2 CFU/mL
